Reference: PubChem BioAssay (NCI)
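Cells were grown in 96-well plates and exposed to each compound for 48 hours at five concentrations; endpoints were interpolated linearly between bracketing concentrations, or set to the highest concentration if not reached. At the GI50, growth is halved. TGI: concentration producing complete growth inhibition.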

Experiments:
Assay in all cases: NCI tumour cell line growth inhibition, 48 h
LOX IMVI melanoma = system: LOX IMVI melanoma
NCI-H226 lung = system: NCI-H226 lung
HOP-92 NSCLC = system: HOP-92 NSCLC
UACC-257 melanoma = system: UACC-257 melanoma
MDA-MB-468 breast = system: MDA-MB-468 breast
CCRF-CEM leukemia = system: CCRF-CEM leukemia
OVCAR-5 ovarian = system: OVCAR-5 ovarian
CAKI-1 renal = system: CAKI-1 renal
ACHN renal = system: ACHN renal
U251 CNS = system: U251 CNS
SF-295 CNS = system: SF-295 CNS
KM12 colon = system: KM12 colon
NCI-H522 lung = system: NCI-H522 lung
A498 renal = system: A498 renal
SNB-19 CNS = system: SNB-19 CNS
UACC-62 melanoma = system: UACC-62 melanoma
NCI/ADR-RES ovarian = system: NCI/ADR-RES ovarian
SF-539 CNS = system: SF-539 CNS
SW-620 colon = system: SW-620 colon
DU-145 prostate = system: DU-145 prostate
HT29 colon = system: HT29 colon
MCF7 breast = system: MCF7 breast
SNB-75 CNS = system: SNB-75 CNS
PC-3 prostate = system: PC-3 prostate
OVCAR-3 ovarian = system: OVCAR-3 ovarian
COLO 205 colon = system: COLO 205 colon
OVCAR-4 ovarian = system: OVCAR-4 ovarian
A549 NSCLC = system: A549 NSCLC
SF-268 CNS = system: SF-268 CNS
MDA-MB-435 = system: MDA-MB-435
MALME-3M melanoma = system: MALME-3M melanoma
EKVX NSCLC = system: EKVX NSCLC
786-0 renal = system: 786-0 renal
T-47D breast = system: T-47D breast
BT-549 breast = system: BT-549 breast
HL-60(TB) leukemia = system: HL-60(TB) leukemia
NCI-H460 lung = system: NCI-H460 lung
HOP-62 NSCLC = system: HOP-62 NSCLC
SN12C renal = system: SN12C renal
UO-31 renal = system: UO-31 renal
SK-MEL-2 melanoma = system: SK-MEL-2 melanoma
MDA-MB-231 breast = system: MDA-MB-231 breast
SK-MEL-5 melanoma = system: SK-MEL-5 melanoma
HS 578T breast = system: HS 578T breast
SK-OV-3 ovarian = system: SK-OV-3 ovarian
HCC-2998 colon = system: HCC-2998 colon
K-562 leukemia = system: K-562 leukemia
SR leukemia = system: SR leukemia
NCI-H23 lung = system: NCI-H23 lung
M14 melanoma = system: M14 melanoma
IGROV1 ovarian = system: IGROV1 ovarian
HCT-15 colon = system: HCT-15 colon
SK-MEL-28 melanoma = system: SK-MEL-28 melanoma
MOLT-4 leukemia = system: MOLT-4 leukemia
TK-10 renal = system: TK-10 renal
RPMI-8226 leukemia = system: RPMI-8226 leukemia
RXF 393 renal = system: RXF 393 renal
OVCAR-8 ovarian = system: OVCAR-8 ovarian

Work on CN1CCN(c2ccc(Nc3nc(NCCCNC(=O)c4ccc(F)cc4)c4sccc4n3)cc2)CC1 yielded a GI50 (LOX IMVI melanoma) of 1.67 µM, a TGI (LOX IMVI melanoma) of 3.31 µM and a GI50 (NCI-H226 lung) of 11.3 µM. The TGI (NCI-H226 lung) was 23.9 µM, the GI50 (HOP-92 NSCLC) was 7.45 µM and the TGI (HOP-92 NSCLC) was 28.2 µM. For the same compound, the GI50 (UACC-257 melanoma) was 2.14 µM, the TGI (UACC-257 melanoma) was 4.94 µM and the GI50 (MDA-MB-468 breast) was 1.46 µM. For the same compound, the TGI (MDA-MB-468 breast) was 4.82 µM, the GI50 (CCRF-CEM leukemia) was 1.92 µM and the TGI (CCRF-CEM leukemia) was 4.99 µM. For the same compound, the GI50 (OVCAR-5 ovarian) was 11.7 µM, the TGI (OVCAR-5 ovarian) was 26 µM and the GI50 (CAKI-1 renal) was 3.43 µM. For the same compound, the TGI (CAKI-1 renal) was 15.2 µM, the GI50 (ACHN renal) was 3.04 µM and the TGI (ACHN renal) was 13.2 µM. For the same compound, the GI50 (U251 CNS) was 3.01 µM, the TGI (U251 CNS) was 10.5 µM and the GI50 (SF-295 CNS) was 1.83 µM. For the same compound, the TGI (SF-295 CNS) was 4.2 µM, the GI50 (KM12 colon) was 4.32 µM and the TGI (KM12 colon) was 18.2 µM. The GI50 (NCI-H522 lung) was 1.77 µM, the TGI (NCI-H522 lung) was 3.92 µM and the GI50 (A498 renal) was 18.8 µM. It also gave a TGI (A498 renal) of 32.8 µM, a GI50 (SNB-19 CNS) of 7.97 µM and a TGI (SNB-19 CNS) of 20.6 µM. The GI50 (UACC-62 melanoma) was 2.04 µM, the TGI (UACC-62 melanoma) was 4.58 µM and the GI50 (NCI/ADR-RES ovarian) was 4.18 µM. It also gave a TGI (NCI/ADR-RES ovarian) of 24.9 µM, a GI50 (SF-539 CNS) of 1.69 µM and a TGI (SF-539 CNS) of 3.16 µM. It also gave a GI50 (SW-620 colon) of 3.04 µM, a TGI (SW-620 colon) of 10.2 µM and a GI50 (DU-145 prostate) of 7.65 µM. For the same compound, the TGI (DU-145 prostate) was 21 µM, the GI50 (HT29 colon) was 2.46 µM and the TGI (HT29 colon) was 7.78 µM. For the same compound, the GI50 (MCF7 breast) was 2.67 µM, the TGI (MCF7 breast) was 11.1 µM and the GI50 (SNB-75 CNS) was 7.14 µM. It also gave a TGI (SNB-75 CNS) of 21.5 µM, a GI50 (PC-3 prostate) of 3.19 µM and a TGI (PC-3 prostate) of 16.6 µM. The GI50 (OVCAR-3 ovarian) was 3.52 µM, the TGI (OVCAR-3 ovarian) was 13.3 µM and the GI50 (COLO 205 colon) was 5.29 µM. It also gave a TGI (COLO 205 colon) of 20.5 µM, a GI50 (OVCAR-4 ovarian) of 5.84 µM and a TGI (OVCAR-4 ovarian) of 29.5 µM. It also gave a GI50 (A549 NSCLC) of 4.77 µM, a TGI (A549 NSCLC) of 22.2 µM and a GI50 (SF-268 CNS) of 4.38 µM. For the same compound, the TGI (SF-268 CNS) was 22.4 µM, the GI50 (MDA-MB-435) was 4.3 µM and the TGI (MDA-MB-435) was 16.1 µM. It also gave a GI50 (MALME-3M melanoma) of 1.79 µM, a TGI (MALME-3M melanoma) of 3.2 µM and a GI50 (EKVX NSCLC) of 12.4 µM. For the same compound, the TGI (EKVX NSCLC) was 25.5 µM, the GI50 (786-0 renal) was 1.91 µM and the TGI (786-0 renal) was 5.45 µM. It also gave a GI50 (T-47D breast) of 2.64 µM, a TGI (T-47D breast) of 13.7 µM and a GI50 (BT-549 breast) of 4.39 µM. For the same compound, the TGI (BT-549 breast) was 16.7 µM, the GI50 (HL-60(TB) leukemia) was 1.52 µM and the TGI (HL-60(TB) leukemia) was 3.39 µM. For the same compound, the GI50 (NCI-H460 lung) was 3.25 µM, the TGI (NCI-H460 lung) was 12.8 µM and the GI50 (HOP-62 NSCLC) was 16.4 µM. The TGI (HOP-62 NSCLC) was 35.7 µM, the GI50 (SN12C renal) was 10.5 µM and the TGI (SN12C renal) was 23.3 µM. For the same compound, the GI50 (UO-31 renal) was 11.7 µM, the TGI (UO-31 renal) was 23.9 µM and the GI50 (SK-MEL-2 melanoma) was 14.5 µM. It also gave a TGI (SK-MEL-2 melanoma) of 28.3 µM, a GI50 (MDA-MB-231 breast) of 4.15 µM and a TGI (MDA-MB-231 breast) of 14.5 µM. It also gave a GI50 (SK-MEL-5 melanoma) of 2.08 µM, a TGI (SK-MEL-5 melanoma) of 4.95 µM and a GI50 (HS 578T breast) of 6.09 µM. It also gave a TGI (HS 578T breast) of 32.2 µM, a GI50 (SK-OV-3 ovarian) of 16.5 µM and a TGI (SK-OV-3 ovarian) of 34.1 µM. For the same compound, the GI50 (HCC-2998 colon) was 3.38 µM, the TGI (HCC-2998 colon) was 11.9 µM and the GI50 (K-562 leukemia) was 1.41 µM. It also gave a TGI (K-562 leukemia) of 4.72 µM, a GI50 (SR leukemia) of 1.71 µM and a TGI (SR leukemia) of 4.6 µM. The GI50 (NCI-H23 lung) was 10.3 µM, the TGI (NCI-H23 lung) was 24.9 µM and the GI50 (M14 melanoma) was 1.83 µM. For the same compound, the TGI (M14 melanoma) was 3.59 µM, the GI50 (IGROV1 ovarian) was 5.98 µM and the TGI (IGROV1 ovarian) was 19.9 µM. The GI50 (HCT-15 colon) was 2.31 µM, the TGI (HCT-15 colon) was 8.13 µM and the GI50 (SK-MEL-28 melanoma) was 1.77 µM. For the same compound, the TGI (SK-MEL-28 melanoma) was 3.45 µM, the GI50 (MOLT-4 leukemia) was 1.67 µM and the TGI (MOLT-4 leukemia) was 5.38 µM. The GI50 (TK-10 renal) was 5.55 µM, the TGI (TK-10 renal) was 17.7 µM and the GI50 (RPMI-8226 leukemia) was 1.79 µM. For the same compound, the TGI (RPMI-8226 leukemia) was 4.25 µM, the GI50 (RXF 393 renal) was 1.45 µM and the TGI (RXF 393 renal) was 3.25 µM. It also gave a GI50 (OVCAR-8 ovarian) of 4.14 µM and a TGI (OVCAR-8 ovarian) of 51.2 µM.
